Measurements as given in US20050101595A1, “N-containing cycloalkyl-substituted amino-thiazole derivatives and pharmaceutical compositions for inhibiting cell proliferation and methods for their use” (PFIZER INC., priority 2003, published 2005).
Counter-ions that a name gives are not always drawn. Like-named read-outs stand apart in the source and are kept apart here.

Experiments:
HCT-116 cell line = assay: Inhibition of cell growth, tetrazolium salt (MTT) assay; assay type: cell-based; settings: for HCT-116 % Inhibition at 0.25 μM: 0.25 μM compound; for IC50: Homo sapiens, HCT-116, 120 h, MTT, three to five days, read-out: HCT-116 IC50
Summary of the method: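 Growth inhibition by MTT reduction at 540 nm (0.2 mg/mL, 4 h at 37° C, formazan dissolved in DMSO), normalized to cells given only 0.5% v/v DMSO. HCT-116 cultures in McCoy's 5A were dosed 4 h post-plating and kept three to five days at 37° C, 5% CO2.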

CDK2/Cyclin A = CDK2/Cyclin A (Homo sapiens, UniProt P24941); assay: Inhibition of CDK2/Cyclin A Retinoblastoma Kinase Activity; assay type: biochemical; settings: for CDK2 % Inhibition At 0.03 μM: Table 2; for Ki: apparent Ki, CDK2/proteolyzed cyclin A, Rb fragment substrate, 25 μM ATP
Summary of the method: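 Baculovirus-expressed CDK2 complexed with proteolyzed cyclin A (10 or 19 nM), Rb fragment substrate, 25 μM [32P/33P]ATP, HEPES pH 7.4, 30 °C for 60 or 75 min under initial-rate conditions. Filter capture and phosphorimager readout; apparent Ki fitted to competitive or tight-binding competitive inhibition.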

[1] = molecular target: human CDK4 and genetically truncated (1-264) cyclin D3 (Homo sapiens, UniProt P11802); assay: Inhibition of CDK4/Cyclin D Retinoblastoma Kinase Activity; assay type: biochemical; settings: for Ki: apparent Ki, CDK4/truncated cyclin D3, Rb fragment substrate, 25 μM ATP
Sequence of human CDK4 and genetically truncated (1-264) cyclin D3 (P11802 whole entry, the tested form may be a part): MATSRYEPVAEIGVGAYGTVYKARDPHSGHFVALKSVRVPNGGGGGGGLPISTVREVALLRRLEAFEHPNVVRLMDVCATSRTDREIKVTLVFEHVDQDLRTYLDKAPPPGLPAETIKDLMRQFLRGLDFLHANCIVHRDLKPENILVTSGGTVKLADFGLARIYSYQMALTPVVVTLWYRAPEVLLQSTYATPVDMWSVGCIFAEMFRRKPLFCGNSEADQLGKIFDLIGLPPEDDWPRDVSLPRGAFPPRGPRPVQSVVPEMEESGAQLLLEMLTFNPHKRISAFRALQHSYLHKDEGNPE
Sequence of human CDK4 and genetically truncated (1-264) cyclin D3 (P30281 1-264 partner): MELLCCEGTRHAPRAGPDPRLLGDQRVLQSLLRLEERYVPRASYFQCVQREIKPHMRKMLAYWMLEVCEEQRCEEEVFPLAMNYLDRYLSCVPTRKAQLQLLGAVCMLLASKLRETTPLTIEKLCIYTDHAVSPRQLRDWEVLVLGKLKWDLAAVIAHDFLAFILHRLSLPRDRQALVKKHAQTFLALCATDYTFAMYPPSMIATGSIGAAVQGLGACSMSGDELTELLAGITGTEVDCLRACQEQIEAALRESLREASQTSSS
Summary of the method: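 Human CDK4/truncated cyclin D3 (1-264) complex from baculovirus-infected insect cells, 5 nM, phosphorylating Rb fragment (residues 386-928, His-tagged) with 25 μM [32/33P]ATP in HEPES pH 7.4, MgCl2, 2% DMSO at 30° C. for 20 min (60 min for tight binders). Filter-captured radioactivity by phosphorimager; apparent Ki from competitive or tight-binding fits.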

[2] = 0.1 μM compound, HCT-116, Table 3
[3] = 0.1 μM compound, HCT-116, Table 4

CCCCCCCOc1ccc(NC(=O)N2CCC(Nc3nc(N)c(C(=O)c4c(F)cccc4F)s3)CC2)cc1 [Example O83]
HCT-116 % Inhibition at 0.25 μM (HCT-116 cell line; HCT-116, Table 2): 59% | CDK2 % Inhibition At 0.03 μM (CDK2/Cyclin A; 0.03 μM compound): 29% | CDK4 % Inhibition at 0.03 μM ([1]; 0.03 μM compound, Table 2): 12%

Nc1nc(NC2CCN(S(=O)(=O)c3ccc(N4CCOCC4)nc3)CC2)sc1C(=O)c1c(F)cccc1F [Example F20, 1-{4-Amino-2-[1-(6-morpholin-4-yl-pyridine-3-sulfonyl)-piperidin-4-ylamino]-thiazol-5-yl}-1-(2,6-difluoro-phenyl)-methanone Hydrochloride]
IC50 (HCT-116 cell line; first HCT-116 column (c4)): 170 nM | IC50 (HCT-116 cell line; second HCT-116 column (c5)): 1300 nM | Ki (CDK2/Cyclin A): 1.4 nM | Ki [1]: 1.3 nM

CC(C)c1cc(C(C)C)c(S(=O)(=O)N2CCC(Nc3nc(N)c(C(=O)c4c(F)cccc4F)s3)CC2)c(C(C)C)c1 [Example P9]
HCT-116 % Inhibition at 0.1 μM (HCT-116 cell line; [2]): 13% | HCT-116 % Inhibition at 0.25 μM (HCT-116 cell line; HCT-116, Table 3): 35% | CDK2 % Inhibition at 0.03 μM (CDK2/Cyclin A; 0.03 μM compound, Table 3): −17% | CDK4 % Inhibition at 0.03 μM ([1]; 0.03 μM compound, Table 3): 46%

COc1ccccc1NC(=O)N1CCC(Nc2nc(N)c(C(=O)c3c(F)cccc3F)s2)CC1 [Example O7]
HCT-116 % Inhibition at 0.25 μM (HCT-116 cell line; HCT-116, Table 2): 43% | CDK2 % Inhibition At 0.03 μM (CDK2/Cyclin A; 0.03 μM compound): 40% | CDK4 % Inhibition at 0.03 μM ([1]; 0.03 μM compound, Table 2): 10%

Nc1nc(NC2CCN(C(=O)c3ccccc3C(F)(F)F)CC2)sc1C(=O)c1c(F)cccc1F [Example Q16]
HCT-116 % Inhibition at 0.1 μM (HCT-116 cell line; [3]): 11% | HCT-116 % Inhibition at 0.25 μM (HCT-116 cell line; HCT-116, Table 4): 50% | CDK2 % Inhibition at 0.03 μM (CDK2/Cyclin A; 0.03 μM compound, Table 4): −12% | CDK4 % Inhibition at 0.03 μM ([1]; 0.03 μM compound, Table 4): 19%

CCCN(CCCS(=O)(=O)N1CCC(Nc2nc(N)c(C(=O)c3c(F)cccc3F)s2)CC1)CC1CC1 [Example K6, 1-(4-Amino-2-{1-[3-(cyclopropylmethyl-propyl-amino)propane-1-sulfonyl]-piperidin-4-ylamino}-thiazol-5-yl)-1-(2,6-difluoro-phenyl)-methanone.]
IC50 (HCT-116 cell line; first HCT-116 column (c4)): 180 nM | IC50 (HCT-116 cell line; second HCT-116 column (c5)): 800 nM | Ki (CDK2/Cyclin A): 5.8 nM | Ki [1]: 1.5 nM

Nc1nc(NC2CCN(C(=O)NC(=O)Oc3ccccc3)CC2)sc1C(=O)c1c(F)cccc1F [Example O62]
HCT-116 % Inhibition at 0.25 μM (HCT-116 cell line; HCT-116, Table 2): 41% | CDK2 % Inhibition At 0.03 μM (CDK2/Cyclin A; 0.03 μM compound): 36% | CDK4 % Inhibition at 0.03 μM ([1]; 0.03 μM compound, Table 2): 18%

Nc1nc(NC2CCN(C(=O)c3c(F)cccc3F)CC2)sc1C(=O)c1c(F)cccc1F [Example Q12]
HCT-116 % Inhibition at 0.1 μM (HCT-116 cell line; [3]): 3% | HCT-116 % Inhibition at 0.25 μM (HCT-116 cell line; HCT-116, Table 4): 46% | CDK2 % Inhibition at 0.03 μM (CDK2/Cyclin A; 0.03 μM compound, Table 4): −20% | CDK4 % Inhibition at 0.03 μM ([1]; 0.03 μM compound, Table 4): 22%

Nc1nc(NC2CCN(S(=O)(=O)CCCN3CCC3)CC2)sc1C(=O)c1c(F)cccc1F [Example K19, 1-{4-Amino-2-[1-(3-azetidin-1-yl-propane-1-sulfonyl)-piperidin-4-ylamino]-thiazol-5-yl}-1-(2,6-difluoro-phenyl)-methanone.]
IC50 (HCT-116 cell line; first HCT-116 column (c4)): 810 nM | IC50 (HCT-116 cell line; second HCT-116 column (c5)): > 5000 nM | Ki (CDK2/Cyclin A): 1.3 nM | Ki [1]: 2 nM

CCC(CC)C(=O)N1CCC(Nc2nc(N)c(C(=O)c3c(F)cccc3F)s2)CC1 [Example R164]
HCT-116 % Inhibition at 0.1 μM (HCT-116 cell line; HCT-116 cells, at 0.1 μM): 0% | HCT-116 5 Inhibition at 0.25 μM (HCT-116 cell line; HCT-116 cells, at 0.25 μM): 41 | CDK2 % Inhibition at 0.03 μM (CDK2/Cyclin A; at 0.03 μM): 9% | CDK4 % Inhibition at 0.03 μM ([1]; at 0.03 μM): 19%

Nc1nc(NC2CCN(C(=O)C3CCC3)CC2)sc1C(=O)c1c(F)cccc1F [Example Q56]
HCT-116 % Inhibition at 0.1 μM (HCT-116 cell line; [3]): 0% | HCT-116 % Inhibition at 0.25 μM (HCT-116 cell line; HCT-116, Table 4): 35% | CDK2 % Inhibition at 0.03 μM (CDK2/Cyclin A; 0.03 μM compound, Table 4): 12% | CDK4 % Inhibition at 0.03 μM ([1]; 0.03 μM compound, Table 4): 14%

COCC(=O)N1CCC(Nc2nc(N)c(C(=O)c3c(F)cccc3F)s2)CC1 [Example Q42]
HCT-116 % Inhibition at 0.1 μM (HCT-116 cell line; [3]): 3% | HCT-116 % Inhibition at 0.25 μM (HCT-116 cell line; HCT-116, Table 4): 30% | CDK2 % Inhibition at 0.03 μM (CDK2/Cyclin A; 0.03 μM compound, Table 4): −4% | CDK4 % Inhibition at 0.03 μM ([1]; 0.03 μM compound, Table 4): 20%

CC1CCC(C)N1CCS(=O)(=O)N1CCC(Nc2nc(N)c(C(=O)c3c(F)cccc3F)s2)CC1 (mixture of isomers) [Example K26, (4-Amino-2-{1-[2-(cis/trans-2,5-dimethyl-pyrrolidin-1-yl)-ethanesulfonyl]-piperidin-4-ylamino}-thiazol-5-yl)-(2,6-difluoro-phenyl)-methanone Trifluoroacetic Acid Salt.]
IC50 (HCT-116 cell line; first HCT-116 column (c4)): 190 nM | IC50 (HCT-116 cell line; second HCT-116 column (c5)): 800 nM | Ki (CDK2/Cyclin A): 13 nM | Ki [1]: 2.1 nM

CN(C)c1ccc(N=Nc2ccc(S(=O)(=O)N3CCC(Nc4nc(N)c(C(=O)c5c(F)cccc5F)s4)CC3)cc2)cc1 [Example P18]
HCT-116 % Inhibition at 0.1 μM (HCT-116 cell line; [2]): 20% | HCT-116 % Inhibition at 0.25 μM (HCT-116 cell line; HCT-116, Table 3): 36% | CDK2 % Inhibition at 0.03 μM (CDK2/Cyclin A; 0.03 μM compound, Table 3): −20% | CDK4 % Inhibition at 0.03 μM ([1]; 0.03 μM compound, Table 3): 6%
